Measured values published in patent US8329218B2, “Unusually stable glasses and methods for forming same” (Wisconsin Alumni Research Foundation, priority 2007, dated 2012).

Assays:
[1] = Quasi-isothermal temperature modulated DSC: transformation of glass to supercooled liquid; format: physicochemical; settings: ordinary glass; Tanneal 319 K
Description: The stable glass was prepared by vapor depositing IMC onto an aluminum substrate using the method described in Example 1, above. The substrate was held at a temperature of 265 K and a deposition rate of 2 Å/s was used. For comparison, an “ordinary” glass sample was also prepared by melting the vapor-deposited IMC glass and cooling the resulting liquid at a rate of 40 K/min.
The kinetic stability of the stable IMC glass was explored in quasi-isothermal temperature modulated differential scanning calorimetry (qi-TMDSC) experiments. In these experiments a TA instruments Q2000 DSC was used. After vapor deposition, the samples were placed in the DSC at room temperature. A temperature jump from room temperature to the annealing-temperature was carried out. At room temperature the sample was a glass, and the annealing temperature was chosen such that it was higher than the ordinary glass Tg (315 K). The temperature jump defines t=0. In addition to the instantaneous temperature jump a small sinusoidal temperature fluctuation was imposed (amplitude: 0.5: K, period: 60 seconds) which allows; one to measure the reversing heat capacity as a function of time.

[2] = Differential scanning calorimetry of glass stability (onset temperature, fictive temperature, θK); format: physicochemical; settings: for Tg (onset temperature) of ordinary glass: ordinary glass cooled from the liquid; for enthalpies and Tfic values of vapor-deposited samples relative to ordinary glass: samples prepared by vapor deposition
Description: Differential scanning calorimetry (DSC) was used to examine the kinetics and thermodynamics of vapor-deposited samples created by heating crystalline TNB or IMC in a vacuum. To move a sample from the glass to the supercooled liquid, energy must be supplied to the sample. In DSC, this energy is supplied as heat to the system as the temperature is ramped from a temperature below the glass transition into the supercooled liquid regime. For an ordinary glass that is cooled from the melt the amount of energy needed to do this is observed by a change in heat capacity at Tg. […] An endothermic heat characteristic will be observed in these cases, often referred to as an enthalpy overshoot, where the size and temperature of the overshoot indicate the amount of stability.
This scan was continued to above the melting point, after which the sample was cooled at 40 K/min into the glass and then scanned again to yield the leftmost curve. This latter-curve represents the behavior of an ordinary glass of TNB, with Tg=347 K, as defined by the onset temperature; it is consistent with previously reported results for TNB (C. M. Whitaker, R. J. McMahon J. Phys. Chem. 100, 1081 (1996); J. H. Magill, J. Chem. Phys. 47, 2802 (1967)). The DSC instrument was calibrated using an indium standard.
The fictive-temperature (Tfic) of the glasses, as defined below, was calculated in order to quantify the thermodynamic stability of the vapor-deposited materials. Lower Tfic values indicate a lower position on the energy landscape. The enthalpy for TNB and IMC samples, obtained by integrating Cp, is plotted in FIG. 1B. […] The supercooled liquid enthalpy curve was calculated by determining the temperature dependence of the enthalpy between the glass transition and the melting point and extrapolating this dependence to lower temperatures. […] Based upon aging experiments on TNB (D. J. Plazek, J. H. Magill, J. Chem. Phys. 45, 3038 (1966)), it is estimated that it would require at least 40 years of annealing an ordinary glass to match Tfic for the vapor-deposited sample shown in FIG. 1.
The Kauzmann temperature and θK were also calculated. For TNB, Magill estimated TK=270 K (J. H. Magill, J. Chem. Phys. 47, 2802 (1967)). […] In comparison, annealing the ordinary glass at 296 K (θK=0.09) or 328 K (θK=0.22) is relatively ineffective. […] Of annealing achieved θK≦0.17 (A. J. Kovacs, Fortschr Hochpolym-Forsch. 3, 394 (1963)).

[3] = Water uptake: weight change as a function of relative humidity (sorption apparatus); format: physicochemical
Description: The stable glass was prepared by vapor depositing IMC onto an aluminum substrate using the method described in Example 1, above. The substrate was held at a temperature of 265 K and a deposition rate of 2 Å/s was used. For comparison, two “ordinary” glass samples were also prepared. These were formed by vapor-deposition at 315 K. In addition, water uptake was measured for a crystalline IMC glass. Weight change as a function of relative humidity was measured for the ordinary glasses, stable glass, and crystalline IMC. The multiple curves for a given sample are from cycles where the relative humidity (RH) was stepped up and back down. A TA instruments Q5000SA sorption apparatus was used to induce relative humidity step changes and measure the steady-state weight change response. For the crystalline IMC (lowest curve), at 50% RH less than 0.1% weight change was observed. By contrast: the ordinary glass (uppermost curves) absorbed nearly one weight percent at a RH of 50%. The measured percent weight change observed here matches previous data obtained for ordinary IMC glasses and crystalline IMC by Zografi and coworkers. (See Andronis et al., J. Pharm. Sci. 86, 346 (1997).)

[4] = DSC of glasses made in a sublimation apparatus; settings: vapor deposition by sublimation, 8 mTorr
Description: A glass container that could be evacuated was used as a sublimation chamber. The lower part of the container held the material to be sublimed (“source material”). A condenser cooled by a circulating coolant was positioned above the source material. At the bottom of the condenser were attached a silicon wafer or aluminum DSC pans, which serves as surfaces for vapor deposition. The source material was heated to sublime by submerging the bottom the sublimation apparatus in an oil bath. The vapor produced by sublimation was deposited on the cooled collecting surfaces. The vacuum maintained during the operation of this device was 8 mTorr. A metal plate was placed over the source material until vapor deposition was to begin, at which time it was withdrawn magnetically. The sublimation rate was controlled by varying the oil bath temperature.
Curve 1 corresponds to a glass prepared by vapor deposition onto a DSC pan held, at approximately Tg−50 K at a rate of ˜0.2 nm/s. Curve 2 corresponds to an ordinary glass, produced by cooling the liquid at a rate of 10 K/min. […] Curve 1 corresponds to a glass prepared by vapor deposition onto a DSC pan at approximately Tg−50 K at a rate of ˜0.4 nm is. […] Curve 2 corresponds to an ordinary glass produced by cooling the liquid at 10 K/min.

[5] = estimated by Magill; cited from earlier work
[6] = Density of vapor-deposited films by x-ray reflectivity; format: physicochemical; settings: deposition at 296 K
Description: The present vapor-deposition methods can also create unusually dense glasses. The ratio of the density of vapor-deposited TNB (ρVD) to that of the ordinary glass (ρo, prepared by cooling from the liquid), increases as the deposition temperature is lowered toward 0.85 Tg (FIG. 2). Also shown as the solid line is a prediction of the density if vapor-deposition produced an equilibrium supercooled liquid at the deposition temperature (D. J. Plazek, J. H. Magill, J. Chem. Phys. 45, 3038 (1966)). For this range of deposition temperatures, the samples nearly achieve this upper bound for density. If a fictive temperature is defined based upon density, deposition at 296 K produces Tfic≈300 K, slightly lower than the fictive temperature based upon the enthalpy. Fictive temperatures based on densities can be determined from FIG. 2, by horizontally shifting the points to overlap with the line shown.
The data in FIG. 2 were determined from x-ray reflectivity measurements made on as-prepared films of TNB and on the same films after thermal equilibration above Tg. All x-ray data was taken at room temperature. […] Since the area of the film was the same before and after annealing, the ratio of the densities equals the inverse of the ratio of the thicknesses, and this is reported in FIG. 2. […]

[7] = Neutron reflectivity of interdiffusion in h-TNB/d-TNB multilayer films during annealing; format: physicochemical
Description: Neutron reflectivity was used to characterize diffusion in ordinary and stable glasses of TNB. The high spatial resolution and large contrast in the scattering length of neutrons for hydrogen and deuterium nuclei make this an excellent technique for quantifying molecular motion. The neutron reflectivity experiments were conducted at the NIST Center for Neutron Research at the National Institute of Standards and Technology (NCNR-NIST). The NG7 horizontal reflectometer utilized a 4.76 Å collimated neutron beam, with a wavelength divergence of 0.18 Å. The angular divergence of the beam was varied through the reflectivity scan and this provided a relative q resolution Δq/q=0.04 (q=4π sin θ/λ, where θ is the incident and final angle with respect to the surface of the film, and where λ is the neutron wavelength).
For the neutron reflectivity measurements, multilayer thin films of protio TNB (h-TNB) and deuterio TNB (d-TNB) were deposited onto 76-mm-diameter, 3-mm-thick silicon-wafers (Wafer World and Virginia Semiconductor), as described in S. F. Swallen, et al., J. Chem. Phys. 124, 184501 (2006). The silicon was used as received, retaining the native oxide coating. The deposition rate was typically 0.1 nm/s. Prior to deposition, the substrate was spin-coated with a 10-nm polystyrene layer (Polymer Source, ˜10^6 g/mol), which acted to minimize crystallization and dewetting of the TNB film during annealing. The polystyrene was made from a mixture of protio and perdeuterio chains, in order, to approximately match the neutron scattering length density of the first h-TNB layer. Following deposition, the samples were slowly cooled and held at room temperature for 1 to 5 days before neutron reflectivity measurements were obtained. The specular reflectivity R was measured as a function of beam angle relative to the sample surface. This value, multiplied by q^4 for clarity, is plotted as a function of the wavevector q. Reflectivity curves for samples vapor-deposited at different temperatures display diffraction peaks; as expected for the symmetric multi-layer samples, only odd diffraction orders are, present. For samples deposited at low temperature, diffraction can be observed up to the 13th order, indicating very sharp h-TNB/d-TNB interfaces. (S. F. Swallen et al; Science 315, 353 (2.007)). […]
FIG. 4A illustrates the behavior of an ordinary glass annealed near Tg; as shown elsewhere (S. F. Swallen et al., J. Chem. Phys. 124, 184501 (2006)), interdiffusion in this sample is characteristic of the equilibrium liquid. […] The magnitude of this stability can be quantified in terms of the equilibrium structural relaxation time τα, known to be 250 s at 342 K (R. Richert, K. Duvvuri, L.-T. Duong, J. Chem. Phys. 118, 1828 (2003)). […]

[8] = at 342 K; cited from earlier work

SMILES | response to temperature jump (transformation to supercooled liquid) [1] | Tg (onset temperature) of ordinary glass [2] [K] | enthalpies and Tfic values of vapor-deposited samples relative to ordinary glass [2] | weight change (water uptake) ([3]; crystalline, 50% RH) | weight change (water uptake) ([3]; ordinary glass (vapor-deposited at 315 K), RH of 50%) | water uptake of stable glass relative to ordinary glass ([3]; relative humidity of 50%) | weight change (water uptake) ([3]; stable glass (vapor-deposited at 265 K, 2 Å/s), relative humidity of 50%) [weight percent] | stability of glass made in sublimation apparatus [4] | Kauzmann temperature TK [5] [K] | Tfic (fictive temperature based upon density) [6] | interdiffusion of h-TNB/d-TNB during annealing ([7]; deposited at 296 K, 16 hours of annealing at 342 K) | interdiffusion of h-TNB/d-TNB during annealing ([7]; deposited at 330 K, 8 hours of annealing at 342 K) | induction time before diffusion ([7]; sample deposited at 0.85Tg, annealed at 342 K) | surface diffusion coefficient ([7]; vapor-deposited at 296 K, 0.1 nm/sec, order-of-magnitude estimate) | equilibrium structural relaxation time τα [8] [s] | annealing time of an ordinary glass required to match Tfic of the vapor-deposited sample ([2]; estimated from aging experiments) | onset temperature ([2]; glass vapor-deposited onto substrate at 296 K, DSC heating 10 K/min) [K] | θK ([2]; ordinary glass annealed at 296 K) | θK ([2]; ordinary glass annealed at 328 K) | θK ([2]; vapor deposition at 296 K (0.85Tg))
COc1ccc2c(c1)c(CC(=O)O)c(C)n2C(=O)c1ccc(Cl)cc1 [IMC, indomethacin] | nearly instantaneous | 315 | considerably lower | less than 0.1% | one | one sixth | 0.15 |  |  |  |  |  |  |  |  |  |  |  |  | 
CCC1(c2ccccc2)C(=O)NC(=O)NC1=O [phenobarbital] |  |  |  |  |  |  |  | low fictive temperatures |  |  |  |  |  |  |  |  |  |  |  | 
c1ccc2cc(-c3cc(-c4cccc5ccccc45)cc(-c4cccc5ccccc45)c3)ccc2c1 [TNB, 1,3-bis-(1-naphthyl)-5-(2-naphthyl)benzene] |  | 347 | considerably lower |  |  |  |  |  | 270 | ≈ 300 K | no detectable interdiffusion occurred | substantial interfacial broadening had occurred | exceeds 200 τα | 5×10^−16 cm^2/sec | 250 | at least 40 years | 363 | 0.09 | 0.22 | 0.43
